Test results taken from US4746509A, “Transdermal medicament” (Rhone-Poulenc Sante, priority 1983, dated 1988).
Structures can show the parent of a compound that is named as a salt.

Assay: Solubility in water
Type: physicochemical

- solubility in water: soluble in water
Compound: CCCC(=O)Nc1ccc(OCC(O)CNC(C)C)c(C(C)=O)c1 (stereo not shown) [acebutolol hydrochloride]
